Measured values taken from ChEMBL document CHEMBL4680277, “Targeting Metabolism of Extracellular Nucleotides via Inhibition of Ectonucleotidases CD73 and CD39” (J Med Chem, 2020).
One block for each compound: values may come before it.

What was measured:
[1] = target: T1, Ectonucleoside triphosphate diphosphohydrolase 1 (Homo sapiens, UniProt P49961); experiment: Inhibition of human CD39 using ATP as substrate preincubated for 3 mins followed by substrate addition and measured after 10 to 15 mins by Dixon and Cornish-Bowden plot analysis; settings: read-out: Ki(app)
T1 sequence (P49961 whole entry): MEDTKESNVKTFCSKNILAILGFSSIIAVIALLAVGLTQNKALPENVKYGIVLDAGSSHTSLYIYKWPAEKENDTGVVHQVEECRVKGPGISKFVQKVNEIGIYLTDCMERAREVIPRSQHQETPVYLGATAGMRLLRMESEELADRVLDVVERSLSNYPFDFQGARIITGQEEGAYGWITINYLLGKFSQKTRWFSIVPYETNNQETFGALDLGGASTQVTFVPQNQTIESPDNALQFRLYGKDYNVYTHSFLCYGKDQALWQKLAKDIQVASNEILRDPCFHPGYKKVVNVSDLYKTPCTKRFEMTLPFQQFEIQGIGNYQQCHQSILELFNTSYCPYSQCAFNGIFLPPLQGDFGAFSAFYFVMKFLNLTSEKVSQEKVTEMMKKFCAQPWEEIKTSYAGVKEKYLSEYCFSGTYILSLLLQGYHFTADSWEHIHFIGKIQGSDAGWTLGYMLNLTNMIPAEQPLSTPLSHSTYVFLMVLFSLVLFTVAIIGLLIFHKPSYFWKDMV

[2] = target: T1, Ectonucleoside triphosphate diphosphohydrolase 1; experiment: Inhibition of human CD39 using ATP as substrate preincubated for 3 mins followed by substrate addition and measured after 10 to 15 mins by Malachite green reagent based assay
[3] = target: T1, Ectonucleoside triphosphate diphosphohydrolase 1; experiment: Inhibition of human CD39 using ATP as substrate preincubated for 3 mins followed by substrate addition and measured after 10 to 15 mins by Cheng-Prusoff analysis; settings: read-out: Ki(app)
5'-nucleotidase [4] = target: T2, 5'-nucleotidase (Homo sapiens, UniProt P21589); experiment: Inhibition of human C-terminal 6His-tagged CD73 (1 to 547 residues) expressed in HEK293F cells using 2 uM AMP as substrate by rapidfire mass spectrometry assay
T2 sequence (P21589 whole entry, the tested form may be a part): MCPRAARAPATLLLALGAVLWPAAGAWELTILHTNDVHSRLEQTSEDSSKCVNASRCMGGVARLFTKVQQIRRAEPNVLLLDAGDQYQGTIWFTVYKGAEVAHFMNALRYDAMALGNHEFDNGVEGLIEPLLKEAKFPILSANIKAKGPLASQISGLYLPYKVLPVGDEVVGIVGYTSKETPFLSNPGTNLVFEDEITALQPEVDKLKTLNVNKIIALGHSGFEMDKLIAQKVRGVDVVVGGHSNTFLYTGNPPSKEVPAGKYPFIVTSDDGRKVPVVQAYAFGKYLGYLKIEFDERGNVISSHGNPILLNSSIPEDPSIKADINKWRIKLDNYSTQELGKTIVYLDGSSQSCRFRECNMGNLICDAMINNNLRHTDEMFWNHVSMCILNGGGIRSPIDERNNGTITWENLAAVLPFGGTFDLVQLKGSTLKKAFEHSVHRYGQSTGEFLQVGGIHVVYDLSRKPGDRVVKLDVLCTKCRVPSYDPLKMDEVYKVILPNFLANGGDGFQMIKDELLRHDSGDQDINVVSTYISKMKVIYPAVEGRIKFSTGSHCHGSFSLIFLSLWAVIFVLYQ

[5] = target: T3, Ectonucleoside triphosphate diphosphohydrolase 1 (Rattus norvegicus, UniProt P97687); experiment: Inhibition of rat CD39 expressed in CHO cells using ATP as substrate incubated for 10 mins by UV absorbance method; format: cell-based
T3 sequence (P97687 whole entry): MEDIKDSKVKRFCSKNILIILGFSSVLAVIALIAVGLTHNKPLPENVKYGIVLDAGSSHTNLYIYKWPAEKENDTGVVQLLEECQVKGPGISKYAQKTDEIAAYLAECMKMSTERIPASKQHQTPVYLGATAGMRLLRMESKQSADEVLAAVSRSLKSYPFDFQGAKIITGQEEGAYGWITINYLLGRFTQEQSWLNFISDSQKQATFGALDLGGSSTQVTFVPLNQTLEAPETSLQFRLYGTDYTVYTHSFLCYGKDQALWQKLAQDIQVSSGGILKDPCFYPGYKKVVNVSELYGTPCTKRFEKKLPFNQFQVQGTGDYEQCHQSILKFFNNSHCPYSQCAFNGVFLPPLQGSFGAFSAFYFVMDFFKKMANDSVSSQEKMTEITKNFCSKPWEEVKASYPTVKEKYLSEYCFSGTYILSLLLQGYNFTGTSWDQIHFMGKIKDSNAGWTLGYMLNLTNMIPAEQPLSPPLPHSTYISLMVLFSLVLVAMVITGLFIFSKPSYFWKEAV

[6] = target: T4, Ectonucleoside triphosphate diphosphohydrolase 2 (Rattus norvegicus, UniProt O35795); experiment: Inhibition of rat NTPDase2 expressed in CHO cells using ATP as substrate incubated for 10 mins by UV absorbance method; format: cell-based
T4 sequence (O35795 whole entry): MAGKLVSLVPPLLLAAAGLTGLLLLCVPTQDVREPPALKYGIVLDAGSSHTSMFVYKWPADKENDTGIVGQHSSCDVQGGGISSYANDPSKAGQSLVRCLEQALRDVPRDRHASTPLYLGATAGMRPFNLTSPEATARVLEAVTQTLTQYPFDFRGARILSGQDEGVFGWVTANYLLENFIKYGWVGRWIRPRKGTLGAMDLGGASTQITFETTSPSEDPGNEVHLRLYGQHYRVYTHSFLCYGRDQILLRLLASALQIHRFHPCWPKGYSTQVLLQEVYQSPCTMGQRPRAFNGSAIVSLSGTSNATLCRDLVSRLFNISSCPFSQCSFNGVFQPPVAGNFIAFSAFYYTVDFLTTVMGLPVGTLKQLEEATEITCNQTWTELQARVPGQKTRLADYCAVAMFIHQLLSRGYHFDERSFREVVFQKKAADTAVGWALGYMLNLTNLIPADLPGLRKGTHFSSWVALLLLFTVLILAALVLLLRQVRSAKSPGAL

[7] = Inhibition of rat NTPDase3 expressed in CHO cells using ATP as substrate incubated for 10 mins by UV absorbance method; format: cell-based
[8] = Inhibition of human FLAG-tagged CD73 Thr376Ala mutant (1 to 552 residues) assessed as reduction in adenosine formation using AMP as substrate preincubated for 10 mins followed by substrate addition and measured after 30 mins by rapidfire mass spectrometry assay
5'-nucleotidase [9] = target: T2, 5'-nucleotidase; experiment: Inhibition of human CD73 expressed in CHO cells using AMP as substrate preincubated for 10 mins followed by substrate addition and measured every minute for 10 to 20 mins by PNP coupled enzyme assay; format: cell-based
5'-nucleotidase [10] = target: T2, 5'-nucleotidase; experiment: Inhibition of recombinant human CD73 using AMP as substrate incubated for 90 mins by malachite green colorimetric assay
5'-nucleotidase [11] = target: T2, 5'-nucleotidase; experiment: Inhibition of recombinant human CD73 using AMP as substrate incubated for 120 mins by CellTiter-Glo assay
5'-nucleotidase [12] = target: T2, 5'-nucleotidase; experiment: Inhibition of human C-terminal His6-tagged CD73 expressed in HEK293F cells using [15N]5-AMP as substrate preincubated for 1 hr followed by substrate addition and measured after 8 mins by MS/MS assay
5'-nucleotidase [13] = target: T5, 5'-nucleotidase (Rattus norvegicus, UniProt P21588); experiment: Inhibition of rat CD73 expressed in baculovirus infected insect cells using AMP substrate by capillary electrophoresis assay
T5 sequence (P21588 whole entry): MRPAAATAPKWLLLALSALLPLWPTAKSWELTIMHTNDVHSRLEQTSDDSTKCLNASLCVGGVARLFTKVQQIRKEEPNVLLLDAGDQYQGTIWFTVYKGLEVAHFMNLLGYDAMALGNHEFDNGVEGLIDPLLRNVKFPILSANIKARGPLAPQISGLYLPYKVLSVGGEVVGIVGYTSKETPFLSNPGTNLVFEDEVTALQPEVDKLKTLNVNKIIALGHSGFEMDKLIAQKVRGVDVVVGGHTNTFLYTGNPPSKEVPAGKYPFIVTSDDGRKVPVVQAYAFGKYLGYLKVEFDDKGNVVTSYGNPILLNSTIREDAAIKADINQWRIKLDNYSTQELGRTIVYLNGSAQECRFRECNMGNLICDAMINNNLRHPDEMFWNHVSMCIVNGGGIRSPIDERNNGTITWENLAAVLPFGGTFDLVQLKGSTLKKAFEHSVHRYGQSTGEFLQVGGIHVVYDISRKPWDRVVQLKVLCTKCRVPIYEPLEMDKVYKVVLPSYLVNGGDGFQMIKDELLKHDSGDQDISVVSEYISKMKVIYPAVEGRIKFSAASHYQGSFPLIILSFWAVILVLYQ

5'-nucleotidase [14] = target: T2, 5'-nucleotidase; experiment: Inhibition of CD73 in human melanoma 1539 cells using AMP substrate by capillary electrophoresis assay; format: cell-based, NW1539
5'-nucleotidase [15] = target: T2, 5'-nucleotidase; experiment: Inhibition of CD73 in human serum using 13C5-15N5-AMP as substrate preincubated for 60 mins followed by substrate addition and measured after 15 mins by LC/MS based assay; format: cell-free

SMILES: CCCCSc1nc2c(N)ncnc2n1[C@@H]1O[C@H](COP(=O)(O)OP(=O)(O)OP(=O)(O)O)[C@@H](O)[C@H]1O
- Ki [3]: 800 nM
- IC50 [2]: 5600 nM

SMILES: CC[C@H]1C[C@@H]1c1cc(-c2c[nH]c(=O)[nH]c2=O)nnc1C
- IC50 (5'-nucleotidase [4]): < 62 nM

SMILES: Cc1nnc(-c2c[nH]c(=O)[nH]c2=O)cc1[C@H]1C[C@@H]1CC(C)C
- IC50 (5'-nucleotidase [4]): < 62 nM

SMILES: N#Cc1nnc(-c2c[nH]c(=O)[nH]c2=O)cc1[C@@H]1CC1(F)F
- IC50 (5'-nucleotidase [4]): < 62 nM

SMILES: CC(C)[C@H]1C[C@@H]1c1cc(-c2c[nH]c(=O)[nH]c2=O)nnc1Cl
- IC50 (5'-nucleotidase [4]): < 62 nM

SMILES: Nc1c(S(=O)(=O)O)cc(Nc2ccc(Nc3nc(Cl)nc(Nc4ccc(S(=O)(=O)O)c(S(=O)(=O)O)c4)n3)c(S(=O)(=O)O)c2)c2c1C(=O)c1ccccc1C2=O
- Ki [5]: 20000 nM
- Ki [6]: 24200 nM
- Ki [7]: 1100 nM

SMILES: CC(C)[C@H]1C[C@@H]1c1cc(-c2c[nH]c(=O)[nH]c2=O)nnc1C#N
- IC50 (5'-nucleotidase [4]): < 62 nM

SMILES: O=S1(=O)NC(Nc2cccc3[nH]ncc23)=Nc2c1cc(Cl)c(F)c2O
- IC50 [8]: 15 nM

SMILES: Nc1ncnc2c1ncn2[C@@H]1O[C@H](COP(=O)(O)CP(=O)(O)O)[C@@H](O)[C@H]1O [PHOSPHOMETHYLPHOSPHONIC ACID ADENOSYL ESTER]
- IC50 (5'-nucleotidase [10]): 1100 nM
- IC50 (5'-nucleotidase [11]): 2500 nM
- IC50 (5'-nucleotidase [12]): 60 nM
- IC50 (5'-nucleotidase [9]): 50 nM
- Ki (5'-nucleotidase [13]): 870 nM
- Ki (5'-nucleotidase [14]): 510 nM

SMILES: Cc1nnc(-c2c[nH]c(=O)[nH]c2=O)cc1[C@H]1C[C@@H]1C(C)(F)F
- IC50 (5'-nucleotidase [4]): < 62 nM

SMILES: CCCCSc1nc2c(N)ncnc2n1[C@@H]1O[C@H](COP(=O)(O)O)[C@@H](O)[C@H]1O
- IC50 [2]: 35000 nM

SMILES: Cc1nnc(-c2c[nH]c(=O)[nH]c2=O)cc1[C@H]1C[C@@H]1C(F)F
- EC50 (5'-nucleotidase [15]): 51 nM
- IC50 (5'-nucleotidase [4]): < 62 nM

SMILES: COc1nnc(-c2c[nH]c(=O)[nH]c2=O)cc1C1CCCCC1
- IC50 (5'-nucleotidase [4]): < 62 nM

Further lines, results first:

- Ki [1]: 900 nM
- IC50 [2]: 28000 nM
SMILES: CCCCSc1nc2c(N)ncnc2n1[C@@H]1O[C@H](COP(=O)(O)OP(=O)(O)O)[C@@H](O)[C@H]1O

- IC50 (5'-nucleotidase [4]): < 62 nM
SMILES: O=c1[nH]cc(-c2cc([C@H]3CC3(F)F)c(Cl)nn2)c(=O)[nH]1

- IC50 (5'-nucleotidase [4]): < 62 nM
SMILES: N#Cc1nnc(-c2c[nH]c(=O)[nH]c2=O)cc1C1CCCC1

- IC50 (5'-nucleotidase [4]): < 62 nM
SMILES: COc1nnc(-c2c[nH]c(=O)[nH]c2=O)cc1C1CC(F)(F)C1

- IC50 (5'-nucleotidase [9]): < 10 nM
SMILES: C[C@@H](Nc1nc(Cl)nc2c1ncn2[C@@H]1O[C@H](CS(=O)(=O)CP(=O)(O)O)[C@@H](O)[C@H]1O)c1ccccc1

- IC50 (5'-nucleotidase [4]): < 62 nM
SMILES: O=c1[nH]cc(-c2cc(C3CC3)c(Cl)nn2)c(=O)[nH]1

- IC50 (5'-nucleotidase [4]): < 62 nM
SMILES: O=c1[nH]cc(-c2cc(C3CCCC3)c(Cl)nn2)c(=O)[nH]1
